Experimental data: PubChem BioAssay (NCI)
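Each compound was tested at five concentrations against cells in 96-well plates for 48 hours. TGI: total growth inhibition.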

Columns and labels:
Test in all cases: inhibition of tumour cell growth, NCI panel, 48 h
786-0 renal = test system: 786-0 renal
A498 renal = test system: A498 renal
A549 NSCLC = test system: A549 NSCLC
ACHN renal = test system: ACHN renal
BT-549 breast = test system: BT-549 breast
CAKI-1 renal = test system: CAKI-1 renal
CCRF-CEM leukemia = test system: CCRF-CEM leukemia
COLO 205 colon = test system: COLO 205 colon
DU-145 prostate = test system: DU-145 prostate
EKVX NSCLC = test system: EKVX NSCLC
HCC-2998 colon = test system: HCC-2998 colon
HCT-116 colon = test system: HCT-116 colon
HCT-15 colon = test system: HCT-15 colon
HL-60(TB) leukemia = test system: HL-60(TB) leukemia
HOP-62 NSCLC = test system: HOP-62 NSCLC
HOP-92 NSCLC = test system: HOP-92 NSCLC
HS 578T breast = test system: HS 578T breast
HT29 colon = test system: HT29 colon
IGROV1 ovarian = test system: IGROV1 ovarian
K-562 leukemia = test system: K-562 leukemia
LOX IMVI melanoma = test system: LOX IMVI melanoma
M14 melanoma = test system: M14 melanoma
MALME-3M melanoma = test system: MALME-3M melanoma
MCF7 breast = test system: MCF7 breast
MDA-MB-231 breast = test system: MDA-MB-231 breast
MDA-MB-435 = test system: MDA-MB-435
MDA-N = test system: MDA-N
MOLT-4 leukemia = test system: MOLT-4 leukemia
NCI-H226 lung = test system: NCI-H226 lung
NCI-H23 lung = test system: NCI-H23 lung
NCI-H460 lung = test system: NCI-H460 lung
NCI-H522 lung = test system: NCI-H522 lung
NCI/ADR-RES ovarian = test system: NCI/ADR-RES ovarian
OVCAR-3 ovarian = test system: OVCAR-3 ovarian
OVCAR-5 ovarian = test system: OVCAR-5 ovarian
OVCAR-8 ovarian = test system: OVCAR-8 ovarian
PC-3 prostate = test system: PC-3 prostate
RPMI-8226 leukemia = test system: RPMI-8226 leukemia
RXF 393 renal = test system: RXF 393 renal
SF-268 CNS = test system: SF-268 CNS
SF-295 CNS = test system: SF-295 CNS
SF-539 CNS = test system: SF-539 CNS
SK-MEL-28 melanoma = test system: SK-MEL-28 melanoma
SK-MEL-5 melanoma = test system: SK-MEL-5 melanoma
SN12C renal = test system: SN12C renal
SNB-19 CNS = test system: SNB-19 CNS
SNB-75 CNS = test system: SNB-75 CNS
SR leukemia = test system: SR leukemia
SW-620 colon = test system: SW-620 colon
T-47D breast = test system: T-47D breast
TK-10 renal = test system: TK-10 renal
UACC-257 melanoma = test system: UACC-257 melanoma
UACC-62 melanoma = test system: UACC-62 melanoma

Measured: TGI

COc1ccc2nc(-c3ccccc3)c(=O)[nH]c2c1
> 100 µM: 786-0 renal | A498 renal | A549 NSCLC | ACHN renal | BT-549 breast | CAKI-1 renal | CCRF-CEM leukemia | COLO 205 colon | DU-145 prostate | EKVX NSCLC | HCC-2998 colon | HCT-116 colon | HCT-15 colon | HL-60(TB) leukemia | HOP-62 NSCLC | HOP-92 NSCLC | HS 578T breast | HT29 colon | IGROV1 ovarian | K-562 leukemia | LOX IMVI melanoma | M14 melanoma | MALME-3M melanoma | MCF7 breast | MDA-MB-231 breast | MDA-MB-435 | MDA-N | MOLT-4 leukemia | NCI-H226 lung | NCI-H23 lung | NCI-H460 lung | NCI-H522 lung | NCI/ADR-RES ovarian | OVCAR-3 ovarian | OVCAR-5 ovarian | OVCAR-8 ovarian | PC-3 prostate | RPMI-8226 leukemia | RXF 393 renal | SF-268 CNS | SF-295 CNS | SF-539 CNS | SK-MEL-28 melanoma | SK-MEL-5 melanoma | SN12C renal | SNB-19 CNS | SNB-75 CNS | SR leukemia | SW-620 colon | T-47D breast | TK-10 renal | UACC-257 melanoma | UACC-62 melanoma
